Values after ≈ are worked out from the molar mass of the structure shown.
Assays:
[1] = in vitro; details: hepatocytes
[2] = in vitro; details: human
[3] = in vitro; details: human, hepatocytes
[4] = in vitro; details: human, plasma
[5] = in vitro; details: SD, HW or BN, rat, plasma
[6] = physchem; details: octan-1-ol/water
[7] = physchem; details: pH 7.4 buffer

Structure (SMILES) | hepatocyte CLint [1] [µL/min/1e6 cells] | microsomal CLint ([2]; microsomes) [µL/min/mg] | hepatocyte CLint [3] [µL/min/1e6 cells] | fraction unbound at 5 h ([4]; PPB) | fraction unbound at 5 h [5] | microsomal CLint ([2]; liver microsomes) [µL/min/mg] | logD ([6]; pH 7.4, LogD7.4) | solubility thermodynamic [7] [µM] | fraction unbound at 5 h [4] | logD ([6]; pH 7.4)
CCCCNC(=O)NS(=O)(=O)c1ccc(C)cc1 [TOLBUTAMIDE] | 6.61 | 6.31 | 6.31 |  |  |  |  |  |  | 
O=C(N[C@H](Cc1ccc(Cl)cc1)C(=O)N1CCC(Cn2cncn2)(C2CCCCC2)CC1)[C@H]1Cc2ccccc2CN1 | 40.7 |  | 27.5 | 0.007 | 0.0052 |  |  |  |  | 
O=C(O)COc1ccc(C(F)(F)F)cc1CN1CCN(S(=O)(=O)c2ccccc2)CC1 | < 3 |  | < 3 |  |  | 6.33 |  |  |  | 
CCC(=O)N[C@H]1CC[C@@H](C(=O)N(C)c2ccc(-c3nc4ccccc4o3)cc2)C1 [BI 99179] | 7.59 | 11 | 4.57 |  |  |  | 3.4 | 45.7 (≈ 17.9 µg/mL) |  | 
O=C(NCC1(O)CCCCCC1)c1cc(-n2ncc(=O)[nH]c2=O)ccc1Cl | < 3 |  | < 3 | 0.24 | 0.129 | < 3 | 0.26 |  |  | 
O=c1[nH]c2c(O)ccc([C@@H](O)CNCCSCCCNCCc3ccccc3)c2s1 | 9 |  | < 3 |  |  | 5 | 0.12 | 1150 (≈ 514 µg/mL) |  | 
O=C1Nc2ccc(Cl)cc2C(c2ccccc2Cl)=NC1O (centres undefined) [LORAZEPAM] | 17.4 |  | 4.57 |  |  | 7.94 |  | 178 (≈ 57.1 µg/mL) | 0.072 | 
CN(C)CCCOc1nn(Cc2ccccc2)c2ccccc12 [BENZYDAMINE] | > 150 | 17.8 | 7.76 |  |  |  | 2.4 |  |  | 
O=C(O)CCc1ccc(OCc2cccc(Br)c2)cc1 | > 150 |  | 129 |  |  | < 3 | 1.67 |  |  | 
CC(CO)(CO)Nc1nc(SCc2cccc(F)c2F)nc2nc(N)sc12 | 7 |  | 4.92 | 0.129 |  |  | 2.87 |  |  | 
Cc1ccc(C)c(OCCCC(C)(C)C(=O)O)c1 [GEMFIBROZIL] | > 150 | 29.5 | 66.1 | 0.0023 | 0.0153 |  | 0.72 |  |  | 
NC(=O)NC(=O)C(Nc1ccc2c(c1)CCC2)c1ccccc1 (centres undefined) | 55 |  | 13.8 |  | 0.0581 | 27.5 |  |  | 0.03 | 3.3
CC(C)NCC(O)COc1ccc(CCOCC2CC2)cc1 (centres undefined) [BETAXOLOL] | 12 | < 3 | < 3 | 0.725 | 0.409 |  |  |  |  | 
C[C@H]1C[C@@H]2[C@H]([C@@H](O)C[C@@]3(C)[C@H]2CC[C@]3(O)C(=O)CO)[C@@]2(C)C=CC(=O)C=C12 [METHYLPREDNISOLONE] | > 150 |  | 9.12 | 0.201 |  |  | 2.12 |  |  | 
O=C(O)C[C@H]1CC[C@H](c2ccc(-c3ccc(Nc4ccc(C(F)(F)F)nc4)cn3)cc2)CC1 | 11.5 |  | < 3 |  |  | < 3 | 3.8 | 1.1 (≈ 0.501 µg/mL) |  | 
O=c1c2sccc2n(CC2COc3ccccc3O2)c(=O)n1O (centres undefined) | 14.8 |  | 135 |  |  | < 3 | 1.44 | 120 (≈ 39.9 µg/mL) |  | 
Cc1ccccc1-n1c(Cn2nc(-c3ccc(O)c(F)c3)c3c(N)ncnc32)nc2cccc(C)c2c1=O | 44.7 |  | 39.8 | 0.02 | 0.0313 |  | 3.55 | 25.1 (≈ 12.7 µg/mL) |  | 
Cc1nn(-c2ccc(F)cc2)c(NS(=O)(=O)c2ccc(C#N)cc2)c1C(=O)N[C@@H](C)C(C)(C)C | 6 |  | < 3 | 0.0437 | 0.0801 |  | 0.45 |  |  | 
O=C(Cc1ccc(Cl)c(C(F)(F)F)c1)Nc1cccc2c(=O)n(CCO)ccc12 | 11 |  | 32 | 0.0097 | 0.072 | < 3 |  |  |  | 
O=C(CO)N1CCC(c2[nH]nc(-c3ccc(Cl)cc3F)c2-c2ccncn2)CC1 | < 3 | < 3 | < 3 | 0.253 | 0.324 |  | 1.79 | 7.8 (≈ 3.24 µg/mL) |  | 
CC(C)(C)NS(=O)(=O)c1cncc(-c2ccc3nc(NC(=O)NCC(=O)N4CCOCC4)nn3c2)c1 | 5 |  | 3.39 |  | 0.535 | 5 | 0.96 | 53.7 (≈ 27.7 µg/mL) |  | 
COc1cccc2c1c(NS(=O)(=O)c1ccc(Cl)s1)nn2Cc1cccc(CNC(=O)[C@H]2COCCN2)c1 | 28 | 58.5 | 16 | 0.0156 | 0.0052 |  |  |  |  | 
CC1Cc2ccccc2N1NC(=O)c1ccc(Cl)c(S(N)(=O)=O)c1 (centres undefined) [INDAPAMIDE] | 13.2 |  | 4.9 | 0.204 |  |  | 1.83 | 151 (≈ 55.4 µg/mL) |  | 
COc1cccc2c1c(NS(=O)(=O)c1ccc(Cl)s1)nn2Cc1cccc(CNC(=O)[C@@H]2COCCN2)c1 | 26 | 40.5 | 20 | 0.016 | 0.0156 |  | 1.61 | 27.5 (≈ 15.8 µg/mL) |  | 
C[C@H](Oc1ccc(Cl)cc1CN1CCN(C(=O)Cc2ccc(Cl)cc2)[C@@H](C)C1)C(=O)O | < 3 |  | 4.7 |  |  | < 3 |  |  | 0.0256 | 

From ChEMBL document CHEMBL3301361, “Experimental in vitro DMPK and physicochemical data on a set of publicly disclosed compounds”
